Measurements from patent publication US12018009B2, “ALDH-2 inhibitor compounds and methods of use” (Amygdala Neurosciences, Inc., priority 2022, dated 2024).

Key:
[1] = O'Malley et al. 2021; cited from earlier work
recombinant human ALDH-2 = biological target: T1, recombinant human ALDH-2 (Homo sapiens, UniProt P05091); assay: ALDH-2 inhibition assay; type: biochemical; conditions: 60 min pre-incubation; 10 μM = highest concentration tested; read-out: Enzymatic Assays IC50 ALDH2
T1 sequence (P05091 18-517): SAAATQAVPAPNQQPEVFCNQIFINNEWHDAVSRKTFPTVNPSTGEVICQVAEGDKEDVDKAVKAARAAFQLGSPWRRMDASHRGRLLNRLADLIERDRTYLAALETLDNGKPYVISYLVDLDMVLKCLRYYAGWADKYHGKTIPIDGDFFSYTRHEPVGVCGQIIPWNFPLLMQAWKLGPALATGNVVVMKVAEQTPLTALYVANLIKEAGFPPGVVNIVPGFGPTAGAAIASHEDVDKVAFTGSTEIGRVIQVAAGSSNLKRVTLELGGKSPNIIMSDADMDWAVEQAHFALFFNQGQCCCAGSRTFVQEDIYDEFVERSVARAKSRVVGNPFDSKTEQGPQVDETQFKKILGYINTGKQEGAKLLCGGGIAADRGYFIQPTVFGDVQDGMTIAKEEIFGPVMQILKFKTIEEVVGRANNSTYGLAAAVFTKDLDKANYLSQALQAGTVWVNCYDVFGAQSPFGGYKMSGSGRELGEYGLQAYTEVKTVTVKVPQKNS
Method: A. ALDH-2 inhibition assay: The ALDH-2 reaction mixture used in the assay contained 125 μM formaldehyde, 75 μM NAD+, 20 mM NaCl, 10 mM MgCl2, and 20 nM recombinant human ALDH-2 in 50 mM Hepes buffer, pH 7.5 in a final volume of 10 μL using 384-well Corning 3820 plates. After 60 min of pre-incubation of the test ALDH-2 inhibitor compound with ALDH-2, the reaction was started by adding NAD+ and formaldehyde and the assay reaction mixture was allowed to proceed for 60 minutes. Activity of the ALDH-2 enzyme was determined by monitoring NADH formation using Perkin-Elmer Envision Reader with excitation and emission wavelengths set at 340 and 460 nm, respectively.

recombinant human ALDH-1 = biological target: T2, recombinant human ALDH-1 (Homo sapiens, UniProt P00352); assay: ALDH-1 inhibition assay; type: biochemical; conditions: 60 min pre-incubation; 10 μM = highest concentration tested; read-out: Enzymatic Assays IC50 ALDH-1
T2 sequence (P00352 1-501): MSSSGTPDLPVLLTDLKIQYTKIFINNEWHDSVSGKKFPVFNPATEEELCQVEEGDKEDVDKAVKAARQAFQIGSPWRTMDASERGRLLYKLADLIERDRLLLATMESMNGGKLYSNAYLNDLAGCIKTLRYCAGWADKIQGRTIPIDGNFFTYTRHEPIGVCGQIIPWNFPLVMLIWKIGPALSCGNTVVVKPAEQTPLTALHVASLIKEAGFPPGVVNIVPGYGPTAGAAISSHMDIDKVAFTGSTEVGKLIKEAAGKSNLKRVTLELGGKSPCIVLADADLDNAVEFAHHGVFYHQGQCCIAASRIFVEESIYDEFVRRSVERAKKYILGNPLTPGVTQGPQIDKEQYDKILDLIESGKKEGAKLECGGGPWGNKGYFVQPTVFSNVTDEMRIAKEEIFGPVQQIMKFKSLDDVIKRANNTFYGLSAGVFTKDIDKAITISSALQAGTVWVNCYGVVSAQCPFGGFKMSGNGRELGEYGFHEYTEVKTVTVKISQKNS
Method: B. ALDH-1 inhibition assay: The ALDH-1 reaction mixture used in the assay contained 100 μM formaldehyde, 2.5 mM NAD+, 20 mM NaCl, 10 mM MgCl2, 1 mM dithiothreitol (DTT; reducing agent), and 50 nM recombinant human ALDH-1 in 50 mM Hepes buffer, pH 7.5 in a final volume of 10 μL using 384-well Corning 3820 plates. After 60 min of pre-incubation of the test ALDH-2 inhibitor compound with ALDH-1, the reaction was started by adding NAD+ and formaldehyde and the assay reaction mixture was allowed to proceed for 60 minutes. Activity of the ALDH-1 enzyme was determined by monitoring NADH formation using Perkin-Elmer Envision Reader with excitation and emission wavelengths set at 340 and 460 nm, respectively.

MAO-A = biological target: T3, MAO-A (Homo sapiens, UniProt P21397); assay: MAO-A inhibition assay (luminogenic substrate); type: biochemical; conditions: 20 min pre-incubation; 10 μM = highest concentration tested; read-out: Enzymatic Assays IC50 MAO-A
T3 sequence (P21397 1-527): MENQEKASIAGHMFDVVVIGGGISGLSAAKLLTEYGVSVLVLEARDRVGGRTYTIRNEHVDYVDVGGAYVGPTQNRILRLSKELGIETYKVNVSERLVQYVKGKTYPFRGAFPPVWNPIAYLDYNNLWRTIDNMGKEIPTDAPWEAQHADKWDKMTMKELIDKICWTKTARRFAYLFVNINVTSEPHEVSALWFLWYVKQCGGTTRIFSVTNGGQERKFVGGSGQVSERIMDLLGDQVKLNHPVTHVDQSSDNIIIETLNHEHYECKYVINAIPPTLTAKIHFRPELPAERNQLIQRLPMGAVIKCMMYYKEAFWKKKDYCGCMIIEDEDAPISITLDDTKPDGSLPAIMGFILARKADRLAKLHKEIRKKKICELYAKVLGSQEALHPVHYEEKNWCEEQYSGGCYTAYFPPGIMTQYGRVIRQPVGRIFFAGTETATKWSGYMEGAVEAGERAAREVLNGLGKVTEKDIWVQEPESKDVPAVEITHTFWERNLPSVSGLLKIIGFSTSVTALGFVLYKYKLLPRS
Method: (§1) D. MAO-A and MAO-B inhibition assays: MAO assays included luminogenic MAO substrate, reaction buffers, Luciferin Detection, and a reconstitution buffer with esterase. The MAO reaction mixture used in the assay included microsome contained MAO-A (2 μg) or MAO-B (10 μg), 160 μM substrate for MAO-A or 16 μM substrate for MAO-B, MAO-A buffer (100 mM Hepes buffer, pH 7.5, 5% glycerol) or MAO-B buffer (100 mM Hepes, pH 7.5, 5% glycerol, 10% dimethyl sulfoxide) in a final volume of 30 μL. After 20 minutes of pre-incubation of the MAO-A or MAO-B enzyme with the test ALDH-2 inhibitor compound, the reaction was initiated by adding enzyme substrate and the […] reaction was allowed to proceed for 60 minutes. Reconstituted Luciferin Detection Reagent (30 μL) was then added is added to simultaneously stop the MAO reaction and convert the methyl ester derivative to luciferin and produce light. The amount of light produced is directly proportional to the activity of MAO. The mixtures were further incubated for 20 minutes and activity of the enzyme was determined using Perkin-Elmer Envision Reader.

MAO-B = biological target: T4, MAO-B (Homo sapiens, UniProt P27338); assay: MAO-B inhibition assay (luminogenic substrate); type: biochemical; conditions: 20 min pre-incubation; 10 μM = highest concentration tested; read-out: Enzymatic Assays IC50 MAO-B
T4 sequence (P27338 1-520): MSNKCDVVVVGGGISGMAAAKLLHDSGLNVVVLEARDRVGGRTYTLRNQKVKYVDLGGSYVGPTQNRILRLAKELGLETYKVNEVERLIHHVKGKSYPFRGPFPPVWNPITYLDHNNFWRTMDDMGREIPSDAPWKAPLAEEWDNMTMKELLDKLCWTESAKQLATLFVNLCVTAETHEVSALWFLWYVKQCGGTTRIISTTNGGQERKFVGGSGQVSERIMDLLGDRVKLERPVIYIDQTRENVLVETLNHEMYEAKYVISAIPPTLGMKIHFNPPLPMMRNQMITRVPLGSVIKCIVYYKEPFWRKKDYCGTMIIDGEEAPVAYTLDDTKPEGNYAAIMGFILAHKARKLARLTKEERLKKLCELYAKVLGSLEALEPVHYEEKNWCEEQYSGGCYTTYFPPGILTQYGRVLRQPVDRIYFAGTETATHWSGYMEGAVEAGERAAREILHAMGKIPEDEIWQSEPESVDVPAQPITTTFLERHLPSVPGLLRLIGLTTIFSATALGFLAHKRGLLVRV
Method: as §1

| SMILES | hepatotoxicity in humans [1] | IC50 (recombinant human ALDH-2) [µM] | IC50 (recombinant human ALDH-1) [µM] | IC50 (MAO-A) [µM] | IC50 (MAO-B) [µM] |
| --- | --- | --- | --- | --- | --- |
| O=C(NCc1ccc(-c2cc[nH]c(=O)c2)cc1)c1c(Cl)cccc1Cl [2,6-dichloro-N-[4-(2-oxo-1,2-dihydro-pyridin-4-yl)-benzyl]-benzamide] | high levels of hepatotoxicity | – | – | – | – |
| Cc1cccc(Cl)c1C(=O)NCc1cnc(N2CCNC(=O)C2)nc1 [(1a), 2-Chloro-6-methyl-N-((2-(3-oxopiperazin-1-yl)pyrimidin-5-yl)methyl)benzamide] | – | 0.089 | > 10 | > 10 | > 10 |
| O=C1CN(c2ncc(CNC(=O)c3ccccc3Cl)cn2)CCN1 [(1b), 2-Chloro-N-((2-(3-oxopiperazin-1-yl)pyrimidin-5-yl)methyl)benzamide] | – | 0.264 | > 10 | > 10 | > 10 |
| Cc1nccc(Cl)c1C(=O)NCc1cnc(N2CCNC(=O)C2)nc1 [(1c), 4-Chloro-2-methyl-N-((2-(3-oxopiperazin-1-yl)pyrimidin-5-yl)methyl)nicotinamide] | – | 0.088 | > 10 | > 10 | > 10 |
